Results on 4 molecules are retold here after ChEMBL document CHEMBL4024701, “Optimization and Structure-Activity Relationships of Phosphinic Pseudotripeptide Inhibitors of Aminopeptidases That Generate Antigenic Peptides” (J Med Chem, 2016).

In data set [1] the target is Leucyl-cystinyl aminopeptidase (Homo sapiens, UniProt Q9UIQ6). Put plainly: Inhibition of IRAP (unknown origin) expressed in HEK 293S GnTI(-) cells by in vitro fluorimetric assay. Type of data set: cell-based.
Data set [2] concerns the target Endoplasmic reticulum aminopeptidase 1 (Homo sapiens, UniProt Q9NZ08). Put plainly: Inhibition of ERAP1 (unknown origin) expressed in Hi5 cells by in vitro fluorimetric assay.
The target in data set [3] is T1, Leucyl-cystinyl aminopeptidase (Mus musculus) (UniProt Q8C129).
T1 sequence (whole entry): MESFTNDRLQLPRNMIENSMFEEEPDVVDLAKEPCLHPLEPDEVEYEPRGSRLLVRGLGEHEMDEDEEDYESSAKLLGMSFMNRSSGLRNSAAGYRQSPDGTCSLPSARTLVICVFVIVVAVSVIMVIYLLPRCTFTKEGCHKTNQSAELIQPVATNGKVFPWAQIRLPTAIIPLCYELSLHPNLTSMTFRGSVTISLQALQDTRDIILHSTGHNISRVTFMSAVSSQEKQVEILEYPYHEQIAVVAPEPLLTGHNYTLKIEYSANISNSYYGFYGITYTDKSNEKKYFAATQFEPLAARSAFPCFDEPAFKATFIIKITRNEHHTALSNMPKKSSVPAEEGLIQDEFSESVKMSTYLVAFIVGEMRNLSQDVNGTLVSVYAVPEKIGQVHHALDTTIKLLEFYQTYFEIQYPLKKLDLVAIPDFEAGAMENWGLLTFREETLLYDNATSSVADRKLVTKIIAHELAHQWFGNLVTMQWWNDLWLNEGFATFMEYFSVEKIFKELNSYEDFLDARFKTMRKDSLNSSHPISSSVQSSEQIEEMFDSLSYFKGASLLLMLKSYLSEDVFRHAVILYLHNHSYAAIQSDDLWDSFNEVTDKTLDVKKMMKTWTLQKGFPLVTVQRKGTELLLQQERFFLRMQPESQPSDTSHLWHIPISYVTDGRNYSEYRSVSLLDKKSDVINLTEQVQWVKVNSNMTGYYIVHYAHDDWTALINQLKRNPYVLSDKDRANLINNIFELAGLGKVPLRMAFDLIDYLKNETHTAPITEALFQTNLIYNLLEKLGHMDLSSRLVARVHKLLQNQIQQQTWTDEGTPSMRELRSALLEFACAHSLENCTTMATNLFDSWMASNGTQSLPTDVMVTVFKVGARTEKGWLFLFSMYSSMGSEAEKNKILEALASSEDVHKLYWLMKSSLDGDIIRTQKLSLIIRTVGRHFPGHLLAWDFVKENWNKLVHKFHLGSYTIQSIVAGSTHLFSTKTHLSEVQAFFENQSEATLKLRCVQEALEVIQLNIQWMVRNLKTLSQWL
Kind of data set: Inhibition of IRAP in C57Bl/6 mouse CD8 alpha-positive cells assessed as reduction of IRAP-dependent cross-presentation activity by measuring IL2 level in CD8+ T-cells isolated from lymph nodes of Rag-1-/- C57Bl/6 OT-I mouse at 3 to 3333 nM pre-incubated for 60 mins followed by addition of ovalbumin measured after 6 hrs by sandwich ELISA. In general terms: In an ELISA, binding on a coated surface is turned into a signal by an enzyme label.

The target in data set [4] is T1, Leucyl-cystinyl aminopeptidase (Mus musculus). Kind of data set: Inhibition of IRAP in C57Bl/6 mouse CD11b-positive dendritic cells assessed as reduction of IRAP-dependent cross-presentation activity by measuring IL2 level in CD8+ T-cells isolated from lymph nodes of Rag-1-/- C57Bl/6 OT-I mouse at 3 to 3333 nM pre-incubated for 60 mins followed by addition of ovalbumin measured after 6 hrs by sandwich ELISA.

Data set [5] in a line: Effect on cross-presentation activity of IRAP-/- knockdown C57Bl/6 mouse CD11b-positive dendritic cells assessed as IL2 level in CD8+ T-cells isolated from lymph nodes of Rag-1-/- C57Bl/6 OT-I mouse at 3 to 1000 nmol/L pre-incubated for 60 mins followed by addition of ovalbumin measured after 6 hrs by sandwich ELISA assay. Type of data set: ADME, cell-based. To be noted: cd11b-positive dendritic cell.

Data set [6] is described as follows: Effect on cross-presentation activity of IRAP-/- knockdown C57Bl/6 mouse […] assessed as IL2 level in CD8+ T-cells isolated from lymph nodes of Rag-1-/- C57Bl/6 OT-I mouse at 3 to 1000 nmol/L pre-incubated for 60 mins followed by addition of ovalbumin measured after 6 hrs by sandwich ELISA assay. Type of data set: ADME, cell-based.
A short description of data set [7]: Effect on cross-presentation activity of IRAP-/- knockdown C57Bl/6 mouse CD8alpha-positive dendritic cells assessed as IL2 level in CD8+ T-cells isolated from lymph nodes of Rag-1-/- C57Bl/6 OT-I mouse at 3.3 uM pre-incubated for 60 mins followed by addition of ovalbumin measured after 6 hrs by sandwich ELISA assay. As to conditions: cd8alpha-positive dendritic cell.

Data set [8] in a line: Effect on cross-presentation activity of IRAP-/- knockdown C57Bl/6 mouse CD11b-positive dendritic cells assessed as IL2 level in CD8+ T-cells isolated from lymph nodes of Rag-1-/- C57Bl/6 OT-I mouse at 3.3 uM pre-incubated for 60 mins followed by addition of ovalbumin measured after 6 hrs by sandwich ELISA assay. In kind it is ADME, cell-based. To be noted: cd11b-positive dendritic cell.

Chain of Endoplasmic reticulum aminopeptidase 1 (Q9NZ08 whole entry): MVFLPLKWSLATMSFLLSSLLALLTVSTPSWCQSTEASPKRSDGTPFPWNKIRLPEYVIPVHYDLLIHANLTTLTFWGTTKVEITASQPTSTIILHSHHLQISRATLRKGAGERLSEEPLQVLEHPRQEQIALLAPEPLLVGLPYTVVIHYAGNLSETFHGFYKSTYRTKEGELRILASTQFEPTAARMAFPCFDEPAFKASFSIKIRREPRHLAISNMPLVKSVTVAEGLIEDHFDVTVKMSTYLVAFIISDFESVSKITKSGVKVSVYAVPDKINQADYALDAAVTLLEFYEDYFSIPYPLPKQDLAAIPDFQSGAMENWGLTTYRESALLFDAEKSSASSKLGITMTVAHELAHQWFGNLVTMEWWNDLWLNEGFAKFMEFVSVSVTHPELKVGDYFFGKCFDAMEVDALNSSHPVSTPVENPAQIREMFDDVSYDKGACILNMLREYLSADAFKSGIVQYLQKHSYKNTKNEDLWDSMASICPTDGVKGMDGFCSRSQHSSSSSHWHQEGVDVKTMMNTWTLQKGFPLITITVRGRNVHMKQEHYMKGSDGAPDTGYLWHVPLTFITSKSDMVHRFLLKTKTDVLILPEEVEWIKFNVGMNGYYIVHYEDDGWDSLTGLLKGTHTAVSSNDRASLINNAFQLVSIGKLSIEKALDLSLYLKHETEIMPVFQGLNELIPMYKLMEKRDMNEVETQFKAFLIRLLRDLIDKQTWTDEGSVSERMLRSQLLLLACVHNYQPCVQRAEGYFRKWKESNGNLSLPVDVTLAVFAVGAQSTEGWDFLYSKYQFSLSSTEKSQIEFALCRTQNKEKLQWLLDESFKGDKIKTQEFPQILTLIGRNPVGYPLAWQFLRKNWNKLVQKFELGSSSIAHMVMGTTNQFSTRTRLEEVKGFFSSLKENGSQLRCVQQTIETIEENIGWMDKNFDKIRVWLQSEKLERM
Chain of Leucyl-cystinyl aminopeptidase (Q9UIQ6 whole entry): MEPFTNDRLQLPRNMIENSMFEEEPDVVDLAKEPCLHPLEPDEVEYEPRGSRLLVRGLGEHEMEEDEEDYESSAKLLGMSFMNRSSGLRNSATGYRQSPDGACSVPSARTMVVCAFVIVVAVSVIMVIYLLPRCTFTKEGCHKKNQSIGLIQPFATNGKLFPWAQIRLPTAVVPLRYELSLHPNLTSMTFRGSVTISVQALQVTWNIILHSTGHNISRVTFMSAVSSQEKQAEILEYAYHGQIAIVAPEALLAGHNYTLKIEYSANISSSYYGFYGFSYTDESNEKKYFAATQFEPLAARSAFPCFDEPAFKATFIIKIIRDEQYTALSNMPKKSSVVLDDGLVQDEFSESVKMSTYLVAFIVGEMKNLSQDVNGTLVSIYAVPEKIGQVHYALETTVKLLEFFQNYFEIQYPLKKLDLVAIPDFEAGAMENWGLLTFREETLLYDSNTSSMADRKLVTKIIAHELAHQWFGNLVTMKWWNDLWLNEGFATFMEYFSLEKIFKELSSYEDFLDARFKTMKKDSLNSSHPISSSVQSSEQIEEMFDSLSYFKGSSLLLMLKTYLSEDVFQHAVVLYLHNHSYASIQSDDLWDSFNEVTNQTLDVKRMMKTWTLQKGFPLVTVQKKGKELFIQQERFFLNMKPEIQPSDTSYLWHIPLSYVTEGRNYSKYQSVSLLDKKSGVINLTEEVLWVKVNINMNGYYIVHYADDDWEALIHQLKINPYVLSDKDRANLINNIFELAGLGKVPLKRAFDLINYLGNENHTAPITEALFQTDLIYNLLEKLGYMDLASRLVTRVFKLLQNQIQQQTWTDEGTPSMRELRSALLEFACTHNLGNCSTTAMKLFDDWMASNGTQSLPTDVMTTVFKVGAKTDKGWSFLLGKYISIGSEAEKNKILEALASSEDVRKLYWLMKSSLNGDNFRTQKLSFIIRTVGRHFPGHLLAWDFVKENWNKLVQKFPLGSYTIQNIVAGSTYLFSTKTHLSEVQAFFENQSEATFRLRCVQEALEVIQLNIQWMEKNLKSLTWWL

In turn, `C#CC[C@H](CP(=O)(O)[C@@H](N)CCc1ccccc1)C(=O)N[C@@H](Cc1ccccc1)C(N)=O` showed an IC50 in data set [1] of 0.002 µM.
With `NC(=O)[C@H](Cc1ccccc1)NC(=O)[C@@H](Cc1cc(-c2ccccc2)cc(-c2ccccc2)c1)CP(=O)(O)[C@@H](N)CCc1ccccc1`, the concentration for half-maximal inhibition (IC50) in data set [2] is greater than 100 µM.
Regarding `NC(=O)[C@H](Cc1ccccc1)NC(=O)[C@H](CC(c1ccccc1)c1ccccc1)CP(=O)(O)[C@@H](N)CCc1ccccc1`, the inhibition result in data set [3] and in data set [4] was “Dose-dependent effect” each time. Also, the Activity entry in data set [5] is given as “Non-Toxic”; in data set [6], “Non-Toxic”; in data set [7], “Toxic”; in data set [8] it was “Toxic”.
In data set [2], `NC(=O)[C@H](Cc1ccccc1)NC(=O)[C@H](Cc1cc(-c2ccccc2)cc(-c2ccccc2)c1)CP(=O)(O)[C@@H](N)CCc1ccccc1` registered an IC50 greater than 35 µM.

By IC50 is commonly meant the concentration needed to halve the response being measured.
